The term IC50 denotes the concentration that gives 50% inhibition. Read a low IC50 as greater potency in that assay.

For experiment [1], the target named is T1, Diacylglycerol O-acyltransferase 1 (Homo sapiens, UniProt O75907).
T1 sequence (O75907 whole entry): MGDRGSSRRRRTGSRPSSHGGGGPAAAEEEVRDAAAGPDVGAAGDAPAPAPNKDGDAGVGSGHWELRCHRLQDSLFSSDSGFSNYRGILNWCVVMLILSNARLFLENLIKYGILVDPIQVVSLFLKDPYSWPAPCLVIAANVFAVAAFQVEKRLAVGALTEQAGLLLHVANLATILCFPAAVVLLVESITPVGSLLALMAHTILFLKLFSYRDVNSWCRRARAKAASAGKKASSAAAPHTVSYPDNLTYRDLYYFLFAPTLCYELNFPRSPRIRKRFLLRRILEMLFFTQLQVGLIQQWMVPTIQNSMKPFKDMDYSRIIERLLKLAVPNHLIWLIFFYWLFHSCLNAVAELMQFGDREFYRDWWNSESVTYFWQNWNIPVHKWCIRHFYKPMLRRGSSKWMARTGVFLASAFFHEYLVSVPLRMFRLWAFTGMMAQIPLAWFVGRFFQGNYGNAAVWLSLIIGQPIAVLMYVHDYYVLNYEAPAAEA
In kind it is tissue-based, Liver.

In experiment [2] the target is T2, Diacylglycerol O-acyltransferase 1 (Mus musculus, UniProt Q9Z2A7).
T2 sequence (Q9Z2A7 whole entry): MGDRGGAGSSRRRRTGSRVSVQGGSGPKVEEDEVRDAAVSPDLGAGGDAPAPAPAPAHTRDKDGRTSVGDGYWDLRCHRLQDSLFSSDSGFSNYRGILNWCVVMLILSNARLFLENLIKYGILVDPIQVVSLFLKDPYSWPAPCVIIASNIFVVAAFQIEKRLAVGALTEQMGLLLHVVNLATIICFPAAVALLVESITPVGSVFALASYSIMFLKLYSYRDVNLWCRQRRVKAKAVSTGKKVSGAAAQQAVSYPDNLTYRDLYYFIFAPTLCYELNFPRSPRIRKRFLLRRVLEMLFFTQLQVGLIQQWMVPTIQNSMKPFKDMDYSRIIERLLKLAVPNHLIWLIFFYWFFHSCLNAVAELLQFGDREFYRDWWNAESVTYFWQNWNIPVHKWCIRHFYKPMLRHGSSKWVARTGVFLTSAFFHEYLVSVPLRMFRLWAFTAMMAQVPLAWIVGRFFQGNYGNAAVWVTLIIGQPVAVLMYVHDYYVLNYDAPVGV
The experiment is described as follows: Inhibition Assay: Â Assay buffer [20 mM HEPES (pH 7.4), 100 mM MgCl2 and 0.04% bovine serum albumin (BSA)] containing 500 uM of enzyme substrate (didecanoyl glycerol) and 7.5 uM radiolabeled acyl-CoA substrate ([14C]decanoyl-CoA) was added to each well of a phospholipid-coated radiometric assay plate. In kind it is microsomes, Liver.

For `O=C(O)C[C@H]1CC[C@H](c2ccc(-c3cn4cc(C(=O)NCc5ccc(F)c(Cl)c5)nc4s3)cc2)CC1`, the IC50 in experiment [1] is < 10 nM; in experiment [2], < 25 nM.
For `O=C(O)C[C@H]1CC[C@H](c2ccc(-c3cn4cc(C(=O)Nc5cccc(Cl)c5)nc4s3)cc2)CC1`, in that order: < 10 nM and < 150 nM.
For `O=C(O)CC1CCC(c2ccc(-c3ccc4nc(C(=O)NCc5c(F)cccc5F)cn4c3)cc2)CC1` (stereo unspecified), in that order: < 25 nM and < 75 nM.
For `O=C(O)C[C@H]1CC[C@H](c2ccc(-c3cn4cc(C(=O)NCc5c(Cl)cccc5Cl)nc4s3)cc2)CC1`, in that order: < 10 nM and < 10 nM.
Consider `O=C(O)CC1CCC(c2ccc(-c3ccc4nc(C(=O)NCc5c(F)cccc5Cl)cn4c3)cc2)CC1` (stereo unspecified), for which the figures for the IC50 in experiment [1] and in experiment [2] were < 10 nM and < 50 nM, respectively.
On the same counts, the results for `O=C(O)CC1CCC(c2ccc(-c3ccc4nc(C(=O)NCc5c(Cl)cccc5C(F)(F)F)cn4c3)cc2)CC1` (stereo unspecified) are < 10 nM and < 10 nM.
For the compound `O=C(O)C[C@H]1CC[C@H](c2ccc(-c3cn4cc(C(=O)NCc5c(F)cccc5Cl)nc4s3)cc2)CC1`, the IC50 in experiment [1] was < 10 nM; in experiment [2], < 25 nM.
On the same counts, the results for `O=C(O)CC1CCC(c2ccc(-c3ccc4nc(C(=O)NCc5c(Cl)cccc5Cl)cn4c3)cc2)CC1` (stereo unspecified) are < 10 nM and < 50 nM.
For `O=C(O)C[C@H]1CC[C@H](c2ccc(-c3cn4cc(C(=O)NCc5c(F)cc(Cl)cc5F)nc4s3)cc2)CC1`, in that order: < 10 nM and < 10 nM.
In the case of `O=C(O)CC1CCC(c2ccc(-c3ccc4nc(C(=O)NC5(c6cc(F)ccc6F)CC5)cn4c3)cc2)CC1` (stereo unspecified), the IC50 in experiment [1] and in experiment [2] was < 10 nM in each case.
As to `O=C(O)C[C@H]1CC[C@H](c2ccc(-c3cn4cc(C(=O)NCc5ccc(OC(F)(F)F)c(Cl)c5)nc4s3)cc2)CC1`, the IC50 in experiment [1] was < 225 nM; in experiment [2] it was < 200 nM.
On the same counts, the results for `O=C(O)C[C@H]1CC[C@H](c2ccc(-c3cn4cc(C(=O)NCc5c(F)cccc5F)nc4s3)cc2)CC1` are < 25 nM and < 25 nM.
In the case of `O=C(O)CC1CCC(c2ccc(-c3cn4cc(C(=O)Nc5ccc(F)c(Cl)c5)nc4s3)cc2)CC1` (stereo unspecified), the results for the IC50 in experiment [1] and in experiment [2] were < 10 nM and < 100 nM, respectively.

The values are drawn from ChEMBL document CHEMBL3886557, “Compounds as inhibitors of diacylglycerol O-acyltransferase type 1 enzyme” (2016).
